The term pIC50 denotes −log10 of the IC50, conventionally taken in molar units.

pIC50: −log10 of the molar value.

Chain of Factor IXa (P00740 227-461 limits assumed): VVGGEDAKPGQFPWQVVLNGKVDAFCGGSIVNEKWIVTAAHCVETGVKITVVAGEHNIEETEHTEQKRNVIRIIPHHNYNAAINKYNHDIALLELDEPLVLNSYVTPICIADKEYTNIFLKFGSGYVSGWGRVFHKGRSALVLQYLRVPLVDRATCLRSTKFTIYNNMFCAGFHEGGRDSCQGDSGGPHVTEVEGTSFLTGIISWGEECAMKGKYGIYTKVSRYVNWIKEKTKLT
Chain of Factor IXa (P00740 47-191 partner limits assumed): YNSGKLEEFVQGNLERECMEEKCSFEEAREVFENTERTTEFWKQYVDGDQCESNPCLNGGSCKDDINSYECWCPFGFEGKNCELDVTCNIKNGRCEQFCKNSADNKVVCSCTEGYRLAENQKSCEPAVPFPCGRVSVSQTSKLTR

The target in this assay is Factor IXa (Homo sapiens, UniProt P00740). The assay is described as follows: Determination of inhibitory activity against Factor IXa (cleavage of fluorescent peptide substrate). In kind it is biochemical. To be noted: cleavage of fluorescent peptide CH3SO2-D-CHG-Gly-Arg-AFC, release of AFC; read-out: FIXa IC50. The method, boiled down:
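Factor IXa activity followed via cleavage of CH3SO2-D-CHG-Gly-Arg-AFC, releasing AFC. Fluorescence read at excitation 405 nm, emission 510 nm.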
Consider `CC1(C)CN(c2ccn(-c3ccnnc3)n2)C(=O)[C@@H]([C@@H](O)C(=O)Nc2ccc3c(N)noc3c2)O1` [Example 172, (R)—N-(3-aminobenzo[d]isoxazol-6-yl)-2-((R)-6,6-dimethyl-3-oxo-4-(1-(pyridazin-4-yl)-1H-pyrazol-3-yl)morpholin-2-yl)-2-hydroxyacetamide], for which the pIC50 is 8.74.
As to `CC1(C)CN(c2nn(-c3ccnnc3)cc2F)C(=O)[C@@H]([C@@H](O)C(=O)Nc2ccc3c(N)noc3c2)O1` [Example 173, (R)—N-(3-aminobenzo[d]isoxazol-6-yl)-2-((R)-4-(4-fluoro-1-(pyridazin-4-yl)-1H-pyrazol-3-yl)-6,6-dimethyl-3-oxomorpholin-2-yl)-2-hydroxyacetamide], the pIC50 is 7.68.
The value for `COc1cc(-n2ccc(N3CC(C)(C)O[C@H]([C@@H](O)C(=O)Nc4ccc5c(N)noc5c4)C3=O)n2)cnn1` [Example 174, (R)—N-(3-aminobenzo[d]isoxazol-6-yl)-2-hydroxy-2-((R)-4-(1-(6-methoxypyridazin-4-yl)-1H-pyrazol-3-yl)-6,6-dimethyl-3-oxomorpholin-2-yl)acetamide] was 8.56.

The record behind these values is patent publication US9708308B2, “Factor IXa inhibitors” (Merck Sharp & Dohme Corp., priority 2012, dated 2017).
